Data taken from PubChem BioAssay AID248 (DTP/NCI, 2004).
Values joined by “and” are separate entries in the source; they are usually repeats but may differ in a detail not shown here. Identical values can stand only once. Toxic doses and inconclusive results are not listed. No stated cut-off is given here; in the data, active means T/C of 150% or more; inactive means T/C below 125%.

Tested on: L1210 leukemia ip in BDF1 mice, survival T/C
Test: NCI In Vivo Anticancer Drug Screen. Data for tumor model L1210 Leukemia (intraperitoneal) in B6D2F1 (BDF1) mice
Details: endpoint: mean survival time, higher = longer survival
How it was run: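 Each compound was tested against a transplantable tumor grown in mice. The endpoint was survival, with treated animals benchmarked against vehicle controls as a simple ratio.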

[1] = dose: 100.0 mg/kg/injection, schedule: Q01DX009 (ip), vehicle: saline
[2] = dose: 200.0 mg/kg/injection, schedule: Q01DX009 (ip), vehicle: saline
[3] = dose: 200.0 mg/kg/injection, schedule: Q04DX002 (ip), vehicle: saline with Tween-80
[4] = dose: 400.0 mg/kg/injection, schedule: Q04DX002 (ip), vehicle: saline with Tween-80
[5] = dose: 100.0 mg/kg/injection, schedule: Q01DX009 (ip), vehicle: Klucel (hydroxypropylcellulose) (HPC)
[6] = dose: 200.0 mg/kg/injection, schedule: Q01DX009 (ip), vehicle: Klucel (hydroxypropylcellulose) (HPC)
[7] = dose: 25.0 mg/kg/injection, schedule: Q01DX009 (ip), vehicle: saline with Tween-80
[8] = dose: 50.0 mg/kg/injection, schedule: Q01DX009 (ip), vehicle: saline with Tween-80
[9] = dose: 100.0 mg/kg/injection, schedule: Q04DX003 (ip), vehicle: saline with Tween-80
[10] = dose: 200.0 mg/kg/injection, schedule: Q04DX003 (ip), vehicle: saline with Tween-80
[11] = dose: 400.0 mg/kg/injection, schedule: Q04DX003 (ip), vehicle: saline with Tween-80
[12] = dose: 100.0 mg/kg/injection, schedule: Q04DX003 (ip), vehicle: Klucel (hydroxypropylcellulose) (HPC)
[13] = dose: 200.0 mg/kg/injection, schedule: Q04DX003 (ip), vehicle: Klucel (hydroxypropylcellulose) (HPC)
[14] = dose: 400.0 mg/kg/injection, schedule: Q04DX003 (ip), vehicle: Klucel (hydroxypropylcellulose) (HPC)
[15] = dose: 100.0 mg/kg/injection, schedule: Q01DX001 (ip), vehicle: other
[16] = dose: 200.0 mg/kg/injection, schedule: Q01DX001 (ip), vehicle: other
[17] = dose: 400.0 mg/kg/injection, schedule: Q01DX001 (ip), vehicle: other

Measured: T/C

CCOC(=O)/C(C)=N\N(C)C
inactive: [1] 92 % of control | dose: 100.0 mg/kg/injection, schedule: Q04DX003 (ip), vehicle: saline 97 % of control | [2] 92 % of control | dose: 200.0 mg/kg/injection, schedule: Q04DX003 (ip), vehicle: saline 101 % of control | dose: 400.0 mg/kg/injection, schedule: Q04DX003 (ip), vehicle: saline 88 % of control

CCC12CC3(C(=O)OC)OC1C(O)CN1CCc4c(n3c3cc(OC)ccc43)C12 (configuration not stated)
inactive: dose: 6.25 mg/kg/injection, schedule: Q04DX002 (ip), vehicle: saline with Tween-80 100 % of control | dose: 12.5 mg/kg/injection, schedule: Q04DX002 (ip), vehicle: saline with Tween-80 107 % of control | dose: 25.0 mg/kg/injection, schedule: Q04DX002 (ip), vehicle: saline with Tween-80 103 % of control | dose: 50.0 mg/kg/injection, schedule: Q04DX002 (ip), vehicle: saline with Tween-80 100 % of control and 86 % of control | [3] 89 % of control | [4] 89 % of control

COc1ccc(CN2CCCN(Cc3ccc(OC)cc3)C2c2cc(I)cc(I)c2O)cc1
inactive: dose: 100.0 mg/kg/injection, schedule: Q01DX001 (ip), vehicle: acetone 96 % of control | dose: 200.0 mg/kg/injection, schedule: Q01DX001 (ip), vehicle: acetone 96 % of control | dose: 400.0 mg/kg/injection, schedule: Q01DX001 (ip), vehicle: acetone 94 % of control

C=CC1CN2CCC1CC2C(O)c1ccnc2ccc(OC)cc12 (configuration not stated)
inactive: dose: 27.45 mg/kg/injection, schedule: Q01DX Z (ip), vehicle: other 92 % of control | dose: 54.9 mg/kg/injection, schedule: Q01DX Z (ip), vehicle: other 92 % of control | dose: 75.0 mg/kg/injection, schedule: Q01DX009 (ip), vehicle: saline with Tween-80 92 % of control | dose: 109.8 mg/kg/injection, schedule: Q01DX Z (ip), vehicle: other 94 % of control | dose: 200.0 mg/kg/injection, schedule: Q01DX001 (ip), vehicle: saline 101 % of control

CCC(=O)OC1(c2ccccc2)CCN(C2CC2)CC1
inactive: dose: 25.0 mg/kg/injection, schedule: Q01DX001 (ip), vehicle: Klucel (hydroxypropylcellulose) (HPC) 92 % of control | dose: 50.0 mg/kg/injection, schedule: Q01DX001 (ip), vehicle: Klucel (hydroxypropylcellulose) (HPC) 97 % of control | dose: 100.0 mg/kg/injection, schedule: Q01DX001 (ip), vehicle: Klucel (hydroxypropylcellulose) (HPC) 100 % of control

Cc1cccc(C)c1NC(=O)Oc1ccc(F)cc1Cl
inactive: [5] 110 % of control | [6] 97 % of control

CC(C)(CC(=O)O)SCCSC(C)(C)CC(=O)O
inactive: [5] 97 % of control | [6] 95 % of control | dose: 400.0 mg/kg/injection, schedule: Q01DX009 (ip), vehicle: Klucel (hydroxypropylcellulose) (HPC) 92 % of control

CNC(=O)Oc1ccc(-c2ccccc2)cc1Cl
inactive: [7] 103 % of control and 106 % of control | [8] 94 % of control and 111 % of control | dose: 100.0 mg/kg/injection, schedule: Q01DX001 (ip), vehicle: saline with Tween-80 101 % of control | dose: 100.0 mg/kg/injection, schedule: Q04DX002 (ip), vehicle: saline with Tween-80 93 % of control and 101 % of control (2×) | [9] 98 % of control | dose: 200.0 mg/kg/injection, schedule: Q01DX001 (ip), vehicle: saline with Tween-80 93 % of control | dose: 200.0 mg/kg/injection, schedule: Q01DX009 (ip), vehicle: saline with Tween-80 94 % of control | [3] 96 % of control and 97 % of control and 100 % of control | [10] 95 % of control | dose: 400.0 mg/kg/injection, schedule: Q01DX001 (ip), vehicle: saline with Tween-80 104 % of control | [4] 103 % of control and 107 % of control and 113 % of control | [11] 98 % of control

CC1CC(N2CSC(=S)N(C3CC(C)CC(C)(C)C3)C2)CC(C)(C)C1 (configuration not stated)
inactive: dose: 25.0 mg/kg/injection, schedule: Q01DX009 (ip), vehicle: Klucel (hydroxypropylcellulose) (HPC) 93 % of control | [5] 86 % of control and 90 % of control | [12] 89 % of control | [13] 94 % of control | [14] 91 % of control

NC(N)=N/N=C/CN1C(=O)c2ccccc2C1=O
inactive: dose: 60.0 mg/kg/injection, schedule: Q01DX Z (oral), vehicle: methylcellulose (MC) 104 % of control | dose: 120.0 mg/kg/injection, schedule: Q01DX Z (oral), vehicle: methylcellulose (MC) 94 % of control | dose: 240.0 mg/kg/injection, schedule: Q01DX Z (oral), vehicle: methylcellulose (MC) 109 % of control | dose: 480.0 mg/kg/injection, schedule: Q01DX Z (oral), vehicle: methylcellulose (MC) 98 % of control

O=S(O)c1ccc(Cl)cc1
inactive: [1] 101 % of control | [2] 100 % of control | dose: 400.0 mg/kg/injection, schedule: Q01DX009 (ip), vehicle: saline 98 % of control

CCOC(=O)c1[nH]c(C)c(CCCC(=O)O)c1C
inactive: dose: 75.0 mg/kg/injection, schedule: Q01DX001 (ip), vehicle: acetone 102 % of control | dose: 150.0 mg/kg/injection, schedule: Q01DX001 (ip), vehicle: acetone 104 % of control

C#CC[As+](c1ccccc1)(c1ccccc1)c1ccccc1
inactive: dose: 6.25 mg/kg/injection, schedule: Q01DX009 (ip), vehicle: Klucel (hydroxypropylcellulose) (HPC) 103 % of control | dose: 12.5 mg/kg/injection, schedule: Q04DX003 (ip), vehicle: Klucel (hydroxypropylcellulose) (HPC) 102 % of control

CCN(CC)CCSC(CO)c1ccccc1 (configuration not stated)
inactive: dose: 75.0 mg/kg/injection, schedule: Q04DX003 (ip), vehicle: Klucel (hydroxypropylcellulose) (HPC) 97 % of control | dose: 150.0 mg/kg/injection, schedule: Q04DX003 (ip), vehicle: Klucel (hydroxypropylcellulose) (HPC) 92 % of control

CC(C)(C)c1cccc(Cl)c1O
inactive: [7] 102 % of control | [8] 93 % of control | dose: 100.0 mg/kg/injection, schedule: Q01DX009 (ip), vehicle: saline with Tween-80 96 % of control and 98 % of control

Nc1cccc(OCCCCc2ccccc2)c1
inactive: [9] 101 % of control | [10] 95 % of control

CCOCCNC1=C(Cl)C(=O)c2ccccc2C1=O
inactive: [15] 97 % of control | [16] 93 % of control | [17] 90 % of control

Nc1[nH][nH]c(=O)c1N=O
inactive: dose: 50.0 mg/kg/injection, schedule: Q01DX009 (ip), vehicle: Klucel (hydroxypropylcellulose) (HPC) 95 % of control | [5] 111 % of control | dose: 100.0 mg/kg/injection, schedule: Q04DX002 (ip), vehicle: saline 103 % of control | [6] 88 % of control | dose: 200.0 mg/kg/injection, schedule: Q04DX002 (ip), vehicle: saline 111 % of control | dose: 400.0 mg/kg/injection, schedule: Q04DX002 (ip), vehicle: saline 92 % of control

Cc1cccc(C(=O)CC(O)(C(F)(F)F)C(F)(F)F)n1
inactive: [9] 92 % of control | [10] 86 % of control | [11] 90 % of control

O=S(=O)(Nc1ccccn1)c1ccc(N(CCCl)CCCl)cc1
inactive: [15] 95 % of control | [16] 103 % of control | [17] 106 % of control

CC1=C2C(=C[C@@](C)(CO)[C@@H]2O)C(=O)[C@](C)(O)C12CC2
inactive: dose: 75.0 micrograms/kg/injection, schedule: Q01DX Z (ip), vehicle: saline 103 % of control | dose: 150.0 micrograms/kg/injection, schedule: Q01DX Z (ip), vehicle: saline 117 % of control | dose: 300.0 micrograms/kg/injection, schedule: Q01DX Z (ip), vehicle: saline 117 % of control | dose: 600.0 micrograms/kg/injection, schedule: Q01DX Z (ip), vehicle: saline 100 % of control

CC(=O)OCc1cc(=O)c(OC(C)=O)co1
inactive: [12] 112 % of control | [13] 96 % of control | [14] 98 % of control

C1CCc2c(c3c(c4c2CCCC4)CCCC3)C1
inactive: dose: 100.0 mg/kg/injection, schedule: Q04DX002 (ip), vehicle: Klucel (hydroxypropylcellulose) (HPC) 100 % of control | dose: 200.0 mg/kg/injection, schedule: Q04DX002 (ip), vehicle: Klucel (hydroxypropylcellulose) (HPC) 93 % of control | dose: 400.0 mg/kg/injection, schedule: Q04DX002 (ip), vehicle: Klucel (hydroxypropylcellulose) (HPC) 97 % of control
